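Results reflect a 48-hour exposure of cells in 96-well plates to compound at five concentrations. Definition used: TGI = concentration required for complete inhibition of growth.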
Legend:
Test in all cases: inhibition of tumour cell growth, NCI panel, 48 h
BT-549 breast = test system: BT-549 breast
HOP-62 NSCLC = test system: HOP-62 NSCLC
KM12 colon = test system: KM12 colon
MDA-MB-435 = test system: MDA-MB-435
NCI-H460 lung = test system: NCI-H460 lung
NCI/ADR-RES ovarian = test system: NCI/ADR-RES ovarian
OVCAR-3 ovarian = test system: OVCAR-3 ovarian
SNB-75 CNS = test system: SNB-75 CNS
U251 CNS = test system: U251 CNS
UACC-257 melanoma = test system: UACC-257 melanoma

| SMILES | TGI (BT-549 breast) [µM] | TGI (HOP-62 NSCLC) [µM] | TGI (KM12 colon) [µM] | TGI (MDA-MB-435) [µM] | TGI (NCI-H460 lung) [µM] | TGI (NCI/ADR-RES ovarian) [µM] | TGI (OVCAR-3 ovarian) [µM] | TGI (SNB-75 CNS) [µM] | TGI (U251 CNS) [µM] | TGI (UACC-257 melanoma) [µM] |
| --- | --- | --- | --- | --- | --- | --- | --- | --- | --- | --- |
| c1ccc(-c2c(-c3[nH]c4ccccc4c3-c3ccccc3)[nH]c3ccccc23)cc1 | 15 | 5.03 | 11.8 | 14.9 | 8.57 | 13.3 | 5.44 | 14.9 | 14.8 | 25.1 |
| COC(=O)[C@@H]1COC(=O)N1 | > 100 | > 100 | > 100 | > 100 | > 100 | > 100 | > 100 | > 100 | > 100 | > 100 |
| CC(C)(CN1CCCCC1)C(=O)CC(SCCS(=O)(=O)O)c1ccc(Cl)cc1 (stereo not given) | 22.7 | 25 | 19.2 | 10.6 | 25.2 | 34 | 17.9 | 15.1 | 22.3 | 20.5 |
| CC(=O)O[C@H]1C(=O)[C@@]2(C)[C@H]([C@H](OC(=O)c3ccco3)[C@]3(O)C[C@H](OC(=O)[C@H](O)[C@@H](NC(=O)c4ccccc4)c4ccccc4)C(C)=C1C3(C)C)[C@]1(OC(C)=O)CO[C@@H]1C[C@@H]2O | > 25 | > 25 | > 25 | 0.0591 | > 13 | > 25 | 0.225 | 3.87 | > 25 | > 25 |

Reference: PubChem BioAssay (NCI)
